What follows are molecules tested against T1, CSF-1R (Homo sapiens, UniProt P07333) (assay: CSF-1R In Vitro AlphaScreen Assay). Settings: purified His-tagged kinase domain of CSF-1R, pEY substrate, 90 μM ATP.
T1 construct: amino acids 568-912, GeneBank ID NM_005211; His; made in house; host or cells: baculovirus infected SF+Express insect cells
T1 sequence (P07333 568-912): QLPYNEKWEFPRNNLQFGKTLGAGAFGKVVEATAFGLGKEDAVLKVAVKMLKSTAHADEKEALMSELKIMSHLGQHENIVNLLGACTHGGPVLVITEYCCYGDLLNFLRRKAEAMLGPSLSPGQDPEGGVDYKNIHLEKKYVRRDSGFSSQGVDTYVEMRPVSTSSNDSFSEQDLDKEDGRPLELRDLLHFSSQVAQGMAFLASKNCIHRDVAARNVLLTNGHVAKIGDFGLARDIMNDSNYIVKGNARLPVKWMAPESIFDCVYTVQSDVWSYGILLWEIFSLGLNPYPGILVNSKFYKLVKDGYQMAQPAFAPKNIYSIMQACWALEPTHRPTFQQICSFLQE
Format: biochemical
Procedure: CSF-1R In Vitro AlphaScreen Assay
Activity of purified CSF-1R was determined in vitro using an Amplified Luminescent Proximity Homogeneous Assay (ALPHA)(Perkin Elmer), which measures phosphorylation of the CSF-1R substrate, biotinylated poly-glutamine-tyrosine peptide (pEY-HTRF CisBio 61GT0BLD), as described below. The His-tagged kinase domain of CSF-1R (i.e., amino acids 568-912, GeneBank ID NM_005211; (see page 25 lines 13-19 of WO 2006/067445 for the sequence listing)) was purified from baculovirus infected SF+Express insect cells (1.4×10^6 cells/ml), French pressed and chromatographed through subsequent Qiagen Ni-NTA, Superflow Mono Q HR 10/10, and Superdex 200 SEC columns. Typical yield was 322 ug/l of cell pellet at >95% purity.
The phosphorylation of the CSF-1R substrate in the presence and absence of the compound of interest was determined. Briefly, 0.2 pM of purified CSF-1R, 5 nM pEY substrate, and compound were preincubated in 1× buffer for 30 minutes at 25° C. Reactions were initiated with addition of 90 μM adenosine triphosphate (ATP) in 1× buffer and incubated at 25° C. for 40 minutes and reactions stopped by addition of 5 μl of detection mix consisting of 136 mM NaCl, 102 mM ethylenediamine tetraacetic acid, 1.65 mg/ml BSA, 40 ug/ml Streptavidin donor beads (Perkin Elmer 6760620M), 40 ug/ml pEY100 acceptor beads (Perkin Elmer 6760620M). Plates were incubated at 25° C. for 18 hours in the dark. Phosphorylated substrate was detected by an EnVision plate reader (Perkin Elmer) 680 nm excitation, 520-620 nm emission. Data was graphed and IC50s calculated using Excel Fit (Microsoft).

| IC50 [nM] | Structure (SMILES) |
| --- | --- |
| 7 | CON(C)C(=O)c1ncc(NC(=O)c2cc(NC(=O)c3cccc(C(C)(C)C#N)c3)ccc2C)s1 [Example 15, 5-[(5-{[3-(1-Cyano-1-methylethyl)benzoyl]amino}-2-methylbenzoyl)amino]-N-methoxy-N-methyl-1,3-thiazole-2-carboxamide] |
| 10 | Cc1cc(C)cc(C(=O)Nc2ccc(Cl)c(C(=O)Nc3cnc(C(C)C)s3)c2)c1 [Example 20, 2-Chloro-5-[(3,5-dimethylbenzoyl)amino]-N-(2-isopropyl-1,3-thiazol-5-yl)benzamide] |
| 13 | CC(C)c1ncc(NC(=O)c2cc(NC(=O)c3cc(F)cc(C(F)(F)F)c3)ccc2Cl)s1 [Example 21, 2-Chloro-5-{[3-fluoro-5-(trifluoromethyl)benzoyl]amino}-N-(2-isopropyl-1,3-thiazol-5-yl)benzamide] |

Source: US20080312206A1, “Chemical Compounds-149” (AstraZeneca AB, priority 2005, published 2008)
